Test results as given in patent US20220380430A1, “Non-Transgenic Functional Rescue of Neuropeptides” (Worcester Polytechnic Institute, priority 2021, published 2022).
Entries after “also recorded” stand apart in the source; their conditions may differ. No end group written: not given here.

Columns and labels:
ins-6 lof worms = test: NaCl chemotaxis assay after rescue-by-feeding; type: in vivo, C. elegans; settings: 750 mM NaCl, in words
Method: All animals were maintained on bacterial lawns of OP50 E. coli, at 20° C., on NGM agar plates until the start of experiments. Mutant or control animals were transferred onto lawns of DH5α E. coli expressing either scramble peptide or the rescue peptide-of-interest on NGM plates containing […] AMP and 1 mM IPTG. Animals were reared on the peptide-expressing lawns for at least 48 hours at 20° C. before assaying for rescue of mutant phenotype at the appropriate developmental stage.
A salt chemotaxis assay was performed as previously described in Leinwand, S. G. & Chalasani, S. H. Nature neuroscience 16, 1461-1467 (2013); Bargmann, C. I. & Horvitz, H. R. Neuron 7, 729-742 (1991) to test the functionality of ins-6 after rescue-by-feeding. Wild-type (N2) and ins-6 worms were fed either scramble or INS-6 peptide passing 4-6 L4 larval onto an NGM plate containing […] AMP and 1 mM IPTG with 75 μL of peptide OD600=1.0. These worms were grown at 20° C. for about 4 days until the progeny of the initial L4 worms were young adults.
The day prior to testing, a thin, 10 mL layer of agar was added to 10 cm petri dishes to generate a 10 cm Chemotaxis Plates (5 mM KPO4 (pH 6.0), 1 μM MgSO4, 1 μM CaCl2), 20 g/L agar, and 8 g/L Difco Nutrient Broth). To prepare the “high salt” plates, 750 mM NaCl was added prior to plate pouring. The high salt plate were stored at 4° C. for up to one month, while the Chemotaxis Plates were made one day prior to testing. To create the high and low salt plugs, the back end of a Pasteur pipette was used to punch a 5 mm plug out of each plate. These 2 plugs were placed on opposite edges of the plate. A 10 mm radius was be drawn around the location of the plugs (FIG. 1). Plates were stored, lightly covered, overnight at room temperature (˜20° C., <40% humidity). […]
Young adult hermaphrodites are tested in the Chemotaxis Assay with no more than three replicates per day, over a minimum of three days, with 100-200 worms/assay plate. The […] Chemotaxis Index (CI) was calculated as follows: […]

NPR-10B = biological target: T1, NPR-10B (Caenorhabditis elegans, UniProt Q6EUU1); test: In vitro GPCR activation assay (CHO-K1 cells, aequorin, human Gα16), NPR-10B; type: cell-based, C. elegans; settings: title: NPR-10B; calcium/aequorin luminescence in transfected CHO-K1 cells
T1 sequence (Q6EUU1 1-362): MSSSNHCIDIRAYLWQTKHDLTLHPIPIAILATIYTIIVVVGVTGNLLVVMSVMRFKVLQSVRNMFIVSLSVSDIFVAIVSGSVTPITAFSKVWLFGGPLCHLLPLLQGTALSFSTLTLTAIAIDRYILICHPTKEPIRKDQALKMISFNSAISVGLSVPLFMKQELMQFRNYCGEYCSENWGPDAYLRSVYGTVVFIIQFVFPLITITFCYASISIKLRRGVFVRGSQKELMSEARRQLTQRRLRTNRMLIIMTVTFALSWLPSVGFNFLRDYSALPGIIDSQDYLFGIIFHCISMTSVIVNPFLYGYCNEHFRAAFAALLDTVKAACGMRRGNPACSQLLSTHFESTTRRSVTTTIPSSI
Method: Using Chinese hamster ovarian (CHO) cell cultures stably expressing the promiscuous G protein, Gα16, and the calcium reporter, aequorin, it was observed that both isoforms of NPR-10 are activated by seven of the ten FLP-3 peptides, with half-maximal effective concentrations (EC50) in the nM range (FIG. 14A-FIG. 14H, Table V). […] This peptide contains an R-to-K mutation within the C-terminal motif, which may explain the lack of receptor activation.
(§1) The GPCR activation assay was performed as previously described Van Sinay, E. et al. Proc. Natl Acad. Sci. USA 114, E4065-e4074 (2017) and Peymen, K. et al. PLoS Genet. 15, e1007945 (2019). Briefly, npr-10 and frpr-16 cDNAs were cloned into the pcDNA3.1 TOPO expression vector (Thermo Fisher Scientific). A CHO-K1 cell line (PerkinElmer, ES-000-A24) stably expressing apo-aequorin targeted to the mitochondria (mtAEQ) and human Gα16 was transiently transfected with the receptor cDNA construct or the empty pcDNA3.1 vector using Lipofectamine LTX and Plus reagent (Thermo Fisher Scientific). Cells were shifted to 28° C. one day later and allowed to incubate for 24 h. On the day of the assay, cells were collected in BSA medium (DMEM/Ham's F12 with 15 mM HEPES, without phenol red, 0.1% BSA) and loaded with […] coelenterazine h (Thermo Fisher Scientific) for 4 h at room temperature. The incubated cells were then added to synthetic peptides dissolved in DMEM/BSA, and luminescence was measured for 30 s at […] using a Mithras LB940 (Berthold Technologies) or MicroBeta LumiJet luminometer (PerkinElmer). After 30 s of readout, 0.1% triton X-100 was added to lyse the cells, resulting in a maximal calcium response that was measured for 10 s. After initial screening, concentration-response curves were constructed for HPLC-purified FLP-3 peptides by subjecting the transfected cells to each peptide in a concentration range from 1 pM to 10 μM. Cells transfected with an empty vector were used as a negative control. Assays were performed in triplicate on at least two independent days. Concentration-response curves were fitted using Prism v. 7 (nonlinear regression analysis with a sigmoidal concentration-response equation).

FRPR-16 = biological target: T2, FRPR-16 (Caenorhabditis elegans, UniProt Q21957); test: In vitro GPCR activation assay (CHO-K1 cells, aequorin, human Gα16), FRPR-16; type: cell-based, C. elegans; settings: calcium/aequorin luminescence in transfected CHO-K1 cells
T2 sequence (Q21957 1-340): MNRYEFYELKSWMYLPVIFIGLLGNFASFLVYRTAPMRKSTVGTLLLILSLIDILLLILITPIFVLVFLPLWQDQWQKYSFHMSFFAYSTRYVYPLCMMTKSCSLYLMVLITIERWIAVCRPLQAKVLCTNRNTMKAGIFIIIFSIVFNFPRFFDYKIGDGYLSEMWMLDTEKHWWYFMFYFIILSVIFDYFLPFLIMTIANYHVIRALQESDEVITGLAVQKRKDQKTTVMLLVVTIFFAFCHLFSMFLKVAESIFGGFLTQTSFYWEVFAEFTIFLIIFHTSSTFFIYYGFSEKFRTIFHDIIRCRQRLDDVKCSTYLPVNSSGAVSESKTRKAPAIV
Method: as §1

flp-3 lof males [1] = test: Drop avoidance assay to ascr #8 after FLP-3 peptide rescue-by-feeding; type: in vivo, C. elegans; settings: flp-3 lof males raised on peptide; 1 μM ascr #8; in words
Method: To identify which FLP-3 peptides are required for male avoidance of ascr #8, a peptide feeding approach https://www.nature.com/articles/s42003-021-02547-7-ref-CR59 was adopted, similar to RNAi feeding (FIG. 16A). Using Gateway Cloning technology, FLP-3 peptide coding sequences were inserted into a bacterial expression vector. As a control, first the FLP-3 peptides were tested that are still encoded in the ok3625 allele which are insufficient to drive the proper ascr #8 response in vivo: FLP-3-1 (SPLGTMRFamide) (SEQ ID NO: 10) and FLP-3-4 (NPLGTMRFamide) (SEQ ID NO: 11). Then flp-3 lof animals were reared on lawns of bacteria expressing the rescue constructs, and their progeny were assayed for avoidance (FIG. 16B-FIG. 16D).
Assays were performed as described previously in Chute, C. D. & Srinivasan, J. Semin. Cell Dev. Biol. 33, 18-24 (2014); Chute, C. D. et al. Nat. Commun. 10, 3186 (2019); and Hilliard, M. A. et al., EMBO J. 23, 1101-1111 (2004). Fifty to sixty L4 worms were segregated by sex and stored at 20° C. for 5 h to overnight to be assayed as young adults. One to four hours prior to the assay, the lids of unseeded plates were tilted to allow any excess moisture to evaporate off the plates. At the time of the assay, 10 or more animals were transferred onto each of the dried, unseeded plates. A drop of either water or 1 μM ascr #8 was placed on the tail of forward moving animals, and their response was scored as either an avoidance response, or no response. The total number of avoidances was divided by the total number of drops to generate an avoidance index for that plate. This was repeated for at least 10 plates over at least three different days.
SCRAMBLE control or FLP-3 peptide constructs were grown overnight in LB media containing […] ampicillin at 37° C. and diluted to an OD600 of 1.0 prior to seeding on NGM plates containing […] ampicillin and 1 mM IPTG. The 75 μL lawn was left to dry and grow overnight at room temperature before three L4 animals were placed on the plates. Males were selected for testing in the same manner as described above but were isolated onto plates also seeded with the same peptide on which they had been reared. Animals were then assayed using either the avoidance assay or single worm assay.

flp-3 lof males [2] = test: Single worm attraction assay (SWAA) to ascr #8 after FLP-3 peptide rescue-by-feeding; type: in vivo, C. elegans; settings: flp-3 lof males raised on peptide; in words
Method: The outer forty wells of a 48-well suspension culture plate (Olympus Plastics, Cat #: 25-103) were seeded with 200 μL of standard NGM agar. To prepare the plates for the assay, they were acclimated to room temperature, at which point each well was seeded with 65 μL of OP50 E. coli. The assay plates were then transferred to a 37° C. incubator with the lid tilted for 4 h to allow the bacterial culture to dry on the agar. Once the bacterial culture dried, the lid was replaced the plate was stored at 20° C. until used in the assay. Fifty to sixty L4 worms were segregated by sex and stored at 20° C. for 5 h to overnight to be assayed as young adults. 0.8 μL of either vehicle control or ascaroside #8 was placed in the center of the well corresponding to that condition within the quadrant being tested, following a random block design (FIG. 11A). A single worm was placed in each of the 10 wells to be assayed, and the plate was transferred to a light source and camera and recorded for 15 m. This process was repeated for all four quadrants. Each strain and sex were assayed over five plates assayed on at least three different days. Raw dwell time values were calculated by subtracting the time a worm exited the cue (center of the well in spatial controls), from the time it entered, as in the SRA. This was determined per visit, and the average dwell time was calculated for each animal in the quadrant. Averages of the four-quadrant means were determined per plate, and a minimum of five plates were assayed per strain/condition. The mean raw dwell time across five plates was calculated and used for statistical analyses and graphical display. The average dwell time in the ascaroside was divided by the average dwell time within the vehicle control per plate to generate a fold-change. To transform the data, the log of this fold-change was taken, and the average log(fold-change) was used for statistical analyses and graphical display. […]

| Substance | rescue of NaCl chemotaxis (ins-6 lof worms; ins-6 lof worms fed peptide) | chemotaxis on overexpression by feeding (ins-6 lof worms; wild-type animals fed INS-6) | EC50 (NPR-10B) [nM] | EC50 (FRPR-16) [nM] | rescue of avoidance phenotype to ascr #8 (Avoidance Index) (flp-3 lof males [1]) | rescue of attraction to ascr #8 (dwell time, log(fold-change)) (flp-3 lof males [2]) |
| --- | --- | --- | --- | --- | --- | --- |
| VPAPGETRACGRKLISLVMAVCGDLCNPQEGKDIATECCGNQCSDDYIRSACCP-NH2 (cysteine pairing not given here) [INS-6] | complete rescue of NaCl chemotaxis; also recorded: restores the Chemotaxis Index at a level similar to the canonical transgenic rescue; also recorded: complete restoration of attraction to high salt concentration | does not result in changes in attraction towards 750 mM NaCl; also recorded: does not affect chemotaxis in wild type animals; also recorded: slight defects in CI towards high salt |  |  |  |  |
| NPENDTPFGTMRF-NH2 [FLP-3-9, NPENDTPFGTMRFamide] |  |  | 760 | 88.3 | lack of avoidance to ascr #8; also recorded: undo the Avoidance phenotype associated with the flp-3 mutation | full rescue of their ability to be attracted to the cue; also recorded: restores the attraction to wild-type |
| TPLGTMRF-NH2 [FLP-3-2, TPLGTMRFamide] |  |  | 366 | 31.7 | able to abolish the avoidance phenotype; also recorded: undo the Avoidance phenotype associated with the flp-3 mutation | not able to restore the animal's ability to be attracted to ascr #8; also recorded: seems to make the animals less attracted to the cue |
